Measurements: PubChem BioAssay (NCI)
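Exposure lasted 48 hours, with cells grown in 96-well plates and compounds tested at five concentrations. Here, GI50 denotes the concentration required for 50% inhibition of growth. Definition used: TGI = concentration required for complete inhibition of growth.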

Assays:
Experiment in all cases: inhibition of tumour cell growth, NCI panel, 48 h
[1] = system: SW-620 colon
[2] = system: CAKI-1 renal
[3] = system: SF-268 CNS
[4] = system: U251 CNS
[5] = system: HL-60(TB) leukemia
[6] = system: HCT-116 colon
[7] = system: HT29 colon
[8] = system: MOLT-4 leukemia
[9] = system: UACC-257 melanoma
[10] = system: DLD-1 colon

Compound	GI50 [1]	TGI [1]	GI50 [2]	TGI [2]	GI50 [3]	TGI [3]	GI50 [4]	TGI [4]	GI50 [5]	TGI [5]	GI50 [6]	TGI [6]	GI50 [7]	TGI [7]	GI50 [8]	TGI [8]	GI50 [9]	TGI [9]	TGI [10]
C[C@]12CC[C@H]3[C@@H](CC4SC(N)=NC45C/C(=N/NC(N)=O)CC[C@]35C)[C@@H]1CCC2=O (stereo partly drawn)	1.69 µM	3.39 µM	1.77 µM	3.64 µM	1.78 µM	4.11 µM	1.77 µM	3.22 µM	2.73 µM	7.95 µM	2.09 µM	4.35 µM	1.88 µM	3.73 µM	2.64 µM	7.02 µM	2.4 µM	5.83 µM	
CCOC(=O)C1=C(C)N(NC(N)=O)C2(N)N(NC(N)=O)C(C)=C(C(=O)OCC)C12C(=O)OCC (stereo not drawn)		> 100 µM		> 100 µM		> 100 µM		> 100 µM				> 100 µM		> 100 µM		> 100 µM		> 100 µM	> 100 µM
Cc1c(Cl)cccc1NC(=O)/C=C/c1ccccc1		> 100 µM		73.3 µM		> 100 µM		> 100 µM		> 100 µM		> 100 µM		> 100 µM		> 100 µM		> 100 µM	
COc1ccc(/C(C#N)=C/c2cc(OC)c(OC)c(OC)c2)cc1	13.6 µM	> 100 µM	20.1 µM	> 100 µM	39.6 µM	> 100 µM	26.2 µM	> 100 µM	13.2 µM	56.5 µM	22.9 µM	> 100 µM	11.8 µM	85.8 µM	20.2 µM	66 µM	31 µM	> 100 µM	
C=C1C(=O)O[C@H]2[C@H]1CC/C(Cn1cc(-c3ccc(F)cc3)nn1)=C\CC[C@@]1(C)O[C@@H]21	0.423 µM	1.54 µM	1.03 µM	2.23 µM	1.69 µM	3.4 µM	2.02 µM	4.43 µM	0.728 µM	2.76 µM	0.295 µM	1.21 µM	0.695 µM	2.15 µM	0.387 µM	2 µM	1.47 µM	3 µM	
NCCNC(=O)c1cccc2cc3ccccc3nc12		> 34.1 µM		> 23.4 µM		3.73 µM		9.04 µM				8.06 µM		6.5 µM		1.94 µM		8.81 µM	18.6 µM
O=C(/C=C1\C(=O)N(Cc2ccccc2)c2ccccc21)c1ccc(OCCN2CCCCC2)cc1	1.7 µM	3.3 µM	1.78 µM	4.02 µM	2.98 µM	10.7 µM	1.91 µM	3.35 µM	1.71 µM	4.39 µM	1.3 µM	2.67 µM	1.82 µM	3.36 µM	1.87 µM	6.44 µM	12.9 µM	25.9 µM	
NC(=O)c1cccc(OCC(O)CO)c1 (stereo not drawn)		> 100 µM		> 100 µM		> 100 µM		> 100 µM		> 100 µM		> 100 µM		> 100 µM		> 100 µM		> 100 µM	
